Source: patent US8193167B2, “Pharmacologically active agents containing esterified phosphonates and methods for use thereof” (priority 2004, dated 2012)
Counter-ions that a name gives are not always drawn. Like-named read-outs stand apart in the source and are kept apart here.

Key:
MCMV strain Smith = assay: Plaque reduction assay for antiviral activity, MCMV in MEF cells; format: cell-based; conditions: read-out: MCMV EC50
[1] = tested on: human foreskin fibroblast (HFF) cells
HCMV strain AD-169 = assay: Plaque reduction assay for antiviral activity, HCMV in HFF cells; format: cell-based; conditions: read-out: HCMV EC50
in vitro = conditions: human
Vaccinia Copenhagen = assay: microbe, parasite or virus in culture; format: cell-based, vaccinia virus (VV); conditions: read-out: Vaccinia Copenhagen EC50
Cowpox Brighton = assay: microbe, parasite or virus in culture; format: cell-based, cowpox virus (CV); conditions: read-out: Cowpox Brighton EC50
[2] = HFF cells, 8-day incubation, value without SD = single determination

| SMILES | EC50 (MCMV strain Smith; MEF cells, 7-day incubation) | CC50 [1] | EC50 (HCMV strain AD-169; [2]) | EC50 (Vaccinia Copenhagen) | EC50 (Cowpox Brighton) | further results |
| --- | --- | --- | --- | --- | --- | --- |
| CCCCCCCCCCCCCCCCCCCCCCOP1(=O)COC(Cn2ccc(N)nc2=O)CO1 (mixture of isomers) [DC-cCDV, Docosyl Cyclic Cidofovir] | 2800 ± 1700 nM | > 100000 nM | 32 nM |  |  |  |
| CCCCCCCCCCCCCCCCOP1(=O)COC(Cn2ccc(N)nc2=O)CO1 (mixture of isomers) [HD-cCDV, Hexadecyl Cyclic Cidofovir] | 130 ± 10 nM | 83000 ± 20000 nM | 3100 ± 2350 nM |  |  |  |
| Nc1ccn(C[C@@H](CO)OCP(=O)(O)O)c(=O)n1 [CDV, Cidofovir, reference compound] |  |  |  |  |  | EC50 (MCMV strain Smith; MEF, 168 h): 40 ± 30 nM; EC50 (HCMV strain AD-169; Human betaherpesvirus 5, AD169, HFF, 192 h): 1200 ± 430 nM; CC50 (in vitro): > 317000 nM; EC50 (Vaccinia Copenhagen; Orthopoxvirus vaccinia, HFF): 31000 ± 5400 nM; EC50 (Cowpox Brighton; Cowpox virus, HFF): 42000 ± 5400 nM |
| CCCCCCCCCCCCCCCCCCCCCCOP(=O)(O)COC(CO)Cn1ccc(N)nc1=O (centres unmarked) [DC-CDV, Docosyl Cidofovir, Sodium Salt] | 850 ± 7 nM | 79600 nM | 4 nM |  |  |  |
| CCCCCCCCCCCCOP(=O)(O)CO[C@H](CO)Cn1ccc(N)nc1=O [DD-CDV, Dodecyl Cidofovir, Sodium Salt] | > 10000 nM | > 100000 nM | 310 ± 190 nM | > 20000 nM | > 20000 nM |  |
| CCCCCCCCCCCCCCCCCCCCOP(=O)(O)CO[C@H](CO)Cn1ccc(N)nc1=O [EC-CDV, Eicosyl Cidofovir, Sodium Salt] | 5 nM |  | 0.7 nM | 1600 ± 1300 nM | 1500 ± 900 nM |  |
| CCCCCCCCCCCCCCCCCCCCOP1(=O)CO[C@@H](Cn2ccc(N)nc2=O)CO1 (some centres unmarked) [EC-cCDV, Eicosyl Cyclic Cidofovir] | 230 ± 10 nM | 86100 nM | 11 nM |  |  |  |
| CCCCCCCCCCCCCCCCOP(=O)(O)COC(CO)Cn1ccc(N)nc1=O (centres unmarked) [HD-CDV, Hexadecyl Cidofovir, Sodium Salt] | 20 nM | > 157000 nM | 5 nM | 3100 ± 100 nM | 6000 ± 2000 nM |  |
| CCCCCCCCOP(=O)(O)CO[C@H](CO)Cn1ccc(N)nc1=O [O-CDV, Octyl Cidofovir, Sodium Salt] | > 10000 nM | > 100000 nM | 5250 ± 5700 nM | > 20000 nM | > 20000 nM |  |
| CCCCCCCCCCCCCCCCCCCCCCCCOP(=O)(O)CO[C@H](CO)Cn1ccc(N)nc1=O [TC-CDV, Tetracosyl Cidofovir, Sodium Salt] | 7450 ± 640 nM | > 100000 nM | 6 nM | > 17000 nM | > 20000 nM |  |
| CCCCCCCCCCCCCCCCCCCCCCCCOP1(=O)CO[C@@H](Cn2ccc(N)nc2=O)CO1 (some centres unmarked) [TC-cCDV, Tetracosyl Cyclic Cidofovir] | 2300 ± 1300 nM | > 100000 nM | 320 nM |  |  |  |
| Nc1ccn(C[C@H]2COP(=O)(O)CO2)c(=O)n1 [cCDV, Cyclic Cidofovir, reference compound] |  |  |  |  |  | EC50 (MCMV strain Smith; 168 h, MEF cells, 7-day incubation): 230 ± 70 nM; EC50 (HCMV strain AD-169; Human betaherpesvirus 5, AD169, 192 h, HFF cells, 8-day incubation, value without SD = single determination): 3100 ± 1800 nM; CC50 (in vitro): > 331000 nM |
